Measurements as given in patent US8124793B2, “Derivatives of ethylene methanedisulfonate as cancer chemotherapeutic agents” (priority 2007, dated 2012).

What was measured:
Format in all cases: cell-based
SN12C = assay: NCI screen, growth of human tumor cells: Renal Cancer SN12C; conditions: SN12C, 10^−4 molar
In short: (§1)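 Percent-growth read-out from the NCI cancer cell screen; data annotated by cancer type and molar concentration, ≥60 points per compound.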

K562 = assay: NCI screen, growth of human tumor cells: Leukemia K562
In short: as §1

RL = assay: NCI screen, growth of human tumor cells: Lymphoma RL
ACHN = assay: NCI screen, growth of human tumor cells: Renal Cancer ACHN; conditions: ACHN
In short: as §1

SU-DAL-7 = assay: NCI screen, growth of human tumor cells: Lymphoma SU-DAL-7
M14 = assay: NCI screen, growth of human tumor cells: Melanoma M14; conditions: M14, 10^−4 molar
In short: as §1

UO-31 = assay: NCI screen, growth of human tumor cells: Renal Cancer UO-31; conditions: UO-31, 10^−4 molar
In short: as §1

SK-MEL-2 = assay: NCI screen, growth of human tumor cells: Melanoma SK-MEL-2
In short: as §1

RPMI-8226 = assay: NCI screen, growth of human tumor cells: Leukemia RPMI-8226; conditions: for percent of growth of human tumor cells: RPMI-8226 (Leukemia), 10^−4 molar
In short: as §1

PA682 = assay: NCI screen, growth of human tumor cells: Lymphoma PA682
HL-60 (TB) = assay: NCI screen, growth of human tumor cells: Leukemia HL-60 (TB); conditions: for % Growth: HL-60(TB)
Experimental: (§2) In the NCI screening process, each compound was tested and described by a minimum of 60 data points. The test data include, but are not limited to the type of cancer, the molar concentration used in the screen, and the percent growth of the cancer. In some cases, NMR and elemental analysis were used for structural assignment.

HOP-62 = assay: NCI screen, growth of human tumor cells: Non-Small Cell Lung HOP-62
In short: as §1

SK-MEL-28 = assay: NCI screen, growth of human tumor cells: Melanoma SK-MEL-28
In short: as §1

SK-MEL-5 = assay: NCI screen, growth of human tumor cells: Melanoma SK-MEL-5
In short: as §1

AS283 = assay: NCI screen, growth of human tumor cells: Lymphoma AS283
MCF 7 = assay: NCI screen, growth of human tumor cells: Breast Cancer MCF 7
In short: as §1

HCT-116 = assay: NCI screen, growth of human tumor cells: Colon Cancer HCT-116
In short: as §1

786-0 = assay: NCI screen, growth of human tumor cells: Renal Cancer 786-0
In short: as §1

KD488 = assay: NCI screen, growth of human tumor cells: Lymphoma KD488
HS 578T = assay: NCI screen, growth of human tumor cells: Breast Cancer HS 578T; conditions: HS 578T (Breast Cancer), 10^−4 molar
In short: as §1

UACC-62 = assay: NCI screen, growth of human tumor cells: Melanoma UACC-62
In short: as §1

MDA-N = assay: NCI screen, growth of human tumor cells: Breast Cancer MDA-N; conditions: 10^−4 molar
In short: as §1

HOP-92 = assay: NCI screen, growth of human tumor cells: Non-Small Cell Lung HOP-92
In short: as §1

IGROVI = assay: NCI screen, growth of human tumor cells: Ovarian Cancer IGROVI; conditions: IGROVI
In short: as §1

NCI-H460 = assay: NCI screen, growth of human tumor cells: Non-Small Cell Lung NCI-H460
In short: as §1

SK-OV-3 = assay: NCI screen, growth of human tumor cells: Ovarian Cancer SK-OV-3; conditions: SK-OV-3, 10^−4 molar
In short: as §1

SW620 = assay: NCI screen, growth of human tumor cells: Colon Cancer SW620
In short: as §1

T-47D = assay: NCI screen, growth of human tumor cells: Breast Cancer T-47D; conditions: 10^−4 molar; for percent of growth of human tumor cells: T-47D (Breast Cancer)
Experimental: as §2

RXF-393 = assay: NCI screen, growth of human tumor cells: Renal Cancer RXF-393
In short: as §1

## Cc1ccc2ccccc2c1CC1S(=O)(=O)OCCOS1(=O)=O [NSC 679043, ethylene 2-methyl-1-naphyl-1,1-ethanedisulfonate]
SN12C
  % Growth: −85%
K562; K562, 10^−4 molar
  % Growth: −42%
K562; K562, 10^−5 molar
  % Growth: 48%
RL; 10^−4 molar
  % Growth: −45%
RL; 10^−5 molar
  % Growth: 33%
ACHN; 10^−4 molar
  % Growth: −90%
SU-DAL-7; SU-DAL-7, 10^−4 molar
  % Growth: −44%
SU-DAL-7; SU-DAL-7, 10^−5 molar
  % Growth: 14%
M14
  % Growth: −78%
UO-31
  % Growth: −100%
SK-MEL-2; SK-MEL-2 (Melanoma), 10^−4 molar
  percent of growth of human tumor cells: −59%
RPMI-8226; RPMI-8226, 10^−4 molar
  % Growth: −54%
RPMI-8226; RPMI-8226, 10^−5 molar
  % Growth: 56%
PA682; PA682, 10^−4 molar
  % Growth: −33%
PA682; PA682, 10^−5 molar
  % Growth: 45%
HL-60 (TB); 10^−4 molar
  % Growth: −49%
HL-60 (TB); 10^−5 molar
  % Growth: −33%
HOP-62; HOP-62, 10^−4 molar
  % Growth: −77%
SK-MEL-28; SK-MEL-28, 10^−4 molar
  % Growth: −78%
SK-MEL-5; SK-MEL-5, 10^−4 molar
  % Growth: −91%
AS283; AS283, 10^−4 molar
  % Growth: −34%
AS283; AS283, 10^−5 molar
  % Growth: 37%
MCF 7; MCF7, 10^−4 molar
  % Growth: −78%
MCF 7; MCF7, 10^−5 molar
  % Growth: 45%
HCT-116; HCT-116, 10^−4 molar
  % Growth: −99%
HCT-116; HCT-116, 10^−5 molar
  % Growth: 15%
786-0; 786-0, 10^−4 molar
  % Growth: −97%
KD488; KD488, 10^−4 molar
  % Growth: −45%
KD488; KD488, 10^−5 molar
  % Growth: 30%
KD488; KD488, 10^−6 molar
  % Growth: 62%
KD488; KD488, 10^−7 molar
  % Growth: 54%

## CC1=C(CC2S(=O)(=O)OCCOS2(=O)=O)C(=O)c2ccccc2C1=O [NSC 693874, ethylene (3-methyl-1,4-naphtho-2-quinoyl)-1,1-ethanedisulfonate]
HS 578T
  percent of growth of human tumor cells: −21%
SN12C
  % Growth: −100%
ACHN; 10^−4 molar
  % Growth: −100%
ACHN; 10^−5 molar
  % Growth: 50%
UACC-62; UACC-62, 10^−4 molar
  % Growth: −92%
UACC-62; UACC-62, 10^−5 molar
  % Growth: 48%
UO-31
  % Growth: −97%
SK-MEL-2; SK-MEL-2, 10^−4 molar
  % Growth: −85%
RPMI-8226; RPMI-8226, 10^−4 molar
  % Growth: −55%
MDA-N
  percent of growth of human tumor cells: −59%
HOP-62; HOP-62, 10^−4 molar
  % Growth: −94%
HOP-92; HOP-92, 10^−4 molar
  % Growth: −88%
IGROVI; 10^−4 molar
  % Growth: −100%
IGROVI; 10^−5 molar
  % Growth: 52%
SK-MEL-28; SK-MEL-28, 10^−4 molar
  % Growth: −83%
SK-MEL-5; SK-MEL-5, 10^−4 molar
  % Growth: −100%
NCI-H460; NCI-H460, 10^−4 molar
  % Growth: −73%
NCI-H460; NCI-H460, 10^−5 molar
  % Growth: 59%
MCF 7; MCF7, 10^−4 molar
  % Growth: −83%
MCF 7; MCF7, 10^−5 molar
  % Growth: 56%
SK-OV-3
  % Growth: −75%
786-0; 786-0 (Renal Cancer), 10^−4 molar
  percent of growth of human tumor cells: −16%

## CC1(C)OCC(COC(=O)C(=O)C2(Cc3ccc4c(c3)C(=O)c3ccccc3C4=O)S(=O)(=O)OCCOS2(=O)=O)O1 (stereo not drawn) [NSC 737276]
HS 578T
  percent of growth of human tumor cells: 17%
SN12C
  % Growth: −64%
SW620; SW620, 10^−4 molar
  % Growth: −74%
T-47D
  percent of growth of human tumor cells: −39%
K562; K562 (Leukemia), 10^−4 molar
  percent of growth of human tumor cells: 29%
ACHN; 10^−4 molar
  % Growth: −82%
UACC-62; UACC-62, 10^−4 molar
  % Growth: −91%
UO-31
  % Growth: −81%
SK-MEL-2; SK-MEL-2, 10^−4 molar
  % Growth: −62%
RPMI-8226
  percent of growth of human tumor cells: −35%
HL-60 (TB); HL-60 (TB) (Leukemia), 10^−4 molar
  percent of growth of human tumor cells: −3%
RXF-393; RXF-393 (Renal Cancer), 10^−4 molar
  percent of growth of human tumor cells: −54%
HOP-62; HOP-62, 10^−4 molar
  % Growth: −84%
HOP-92; HOP-92 (Non-Small Cell Lung), 10^−4 molar
  percent of growth of human tumor cells: −47%
IGROVI; 10^−4 molar
  % Growth: −70%
SK-MEL-28; SK-MEL-28 (Melanoma), 10^−4 molar
  percent of growth of human tumor cells: −52%
SK-MEL-5; SK-MEL-5 (Melanoma), 10^−4 molar
  percent of growth of human tumor cells: −4%
NCI-H460; NCI-H460 (Non-Small Cell Lung), 10^−4 molar
  percent of growth of human tumor cells: −59%
MCF 7; MCF 7 (Breast Cancer), 10^−4 molar
  percent of growth of human tumor cells: −59%
HCT-116; HCT-116, 10^−4 molar
  % Growth: −86%
SK-OV-3
  % Growth: −67%
786-0; 786-0, 10^−4 molar
  % Growth: −74%

## CC(=O)C1(CC2=C(C)C(=O)c3ccccc3C2=O)S(=O)(=O)OCCOS1(=O)=O [NSC 701690]
SN12C
  % Growth: −100%
SW620; SW620, 10^−4 molar
  % Growth: −100%
SW620; SW620, 10^−5 molar
  % Growth: 23%
SW620; SW620, 10^−6 molar
  % Growth: 54%
T-47D
  percent of growth of human tumor cells: −54%
T-47D; T-47D
  % Growth: −54%
K562; K562, 10^−4 molar
  % Growth: −66%
ACHN; 10^−4 molar
  % Growth: −77%
UACC-62; UACC-62 (Melanoma), 10^−4 molar
  percent of growth of human tumor cells: −57%
M14
  % Growth: −100%
UO-31
  % Growth: −92%
SK-MEL-2; SK-MEL-2, 10^−4 molar
  % Growth: −73%
SK-MEL-2; SK-MEL-2, 10^−5 molar
  % Growth: 7%
SK-MEL-2; SK-MEL-2, 10^−6 molar
  % Growth: −2%
SK-MEL-2; SK-MEL-2, 10^−7 molar
  % Growth: −8%
SK-MEL-2; SK-MEL-2, 10^−8 molar
  % Growth: −3%
RPMI-8226
  percent of growth of human tumor cells: −18%
RXF-393; RXF-393, 10^−4 molar
  % Growth: −69%
HOP-62; HOP-62, 10^−4 molar
  % Growth: −92%
HOP-62; HOP-62, 10^−5 molar
  % Growth: 52%
HOP-92; HOP-92, 10^−4 molar
  % Growth: −66%
HOP-92; HOP-92, 10^−5 molar
  % Growth: 23%
HOP-92; HOP-92, 10^−6 molar
  % Growth: 60%
IGROVI; 10^−4 molar
  % Growth: −100%
IGROVI; 10^−5 molar
  % Growth: 40%
IGROVI; 10^−6 molar
  % Growth: 60%
SK-MEL-28; SK-MEL-28, 10^−4 molar
  % Growth: −100%
SK-MEL-28; SK-MEL-28, 10^−5 molar
  % Growth: 58%
SK-MEL-5; SK-MEL-5, 10^−4 molar
  % Growth: −100%
SK-MEL-5; SK-MEL-5, 10^−5 molar
  % Growth: 58%
NCI-H460; NCI-H460, 10^−4 molar
  % Growth: −100%
NCI-H460; NCI-H460, 10^−5 molar
  % Growth: 42%
MCF 7; MCF7, 10^−4 molar
  % Growth: −100%
HCT-116; HCT-116, 10^−4 molar
  % Growth: −100%
786-0; 786-0, 10^−4 molar
  % Growth: −100%
786-0; 786-0, 10^−5 molar
  % Growth: 36%
